The compounds below were run against T1, IGF-1R Ba/F3 (Homo sapiens, UniProt P08069) (assay: Ba/F3 Cell Viability Inhibition Assay (IGF-1R Ba/F3)). Details: Tel-TK transformed Ba/F3 cells, 48 hours, Britelite luminescence.
T1 construct: fused on or other part: TEL- (or BCR-) IGF-1R in Ba/F3: the kinase part holds the site
Type: cell-based, murine
In short: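 IL-3-independent murine Ba/F3 cells transformed with a TEL/BCR-fused IGF-1R kinase were seeded at 3750 cells/well and exposed to serially diluted compound for 48 h at 37 °C. Viability was read by Britelite luminescence. IC50 is the concentration giving 50% of DMSO-control viability, from a logistic fit.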

T1 sequence (P08069 999-1274 limits assumed): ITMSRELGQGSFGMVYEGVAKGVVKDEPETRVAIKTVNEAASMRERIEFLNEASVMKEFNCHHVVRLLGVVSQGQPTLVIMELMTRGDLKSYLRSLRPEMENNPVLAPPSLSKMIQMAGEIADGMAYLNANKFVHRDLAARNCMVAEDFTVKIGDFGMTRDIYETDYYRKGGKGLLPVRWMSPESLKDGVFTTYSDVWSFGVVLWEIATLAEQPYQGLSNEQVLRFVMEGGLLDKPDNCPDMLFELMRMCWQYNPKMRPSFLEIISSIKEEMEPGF

| Compound | IC50 [nM] |
| --- | --- |
| Cc1cc(Nc2nc(Nc3cc(C)c(C4CCN(C5CCNCC5)CC4)cc3F)ncc2Cl)n[nH]1 [Compound 276, N2-(4-(1,4′-bipiperidin-4-yl)-2-fluoro-5-methylphenyl)-5-chloro-N4-(5-methyl-1H-pyrazol-3-yl)pyrimidine-2,4-diamine] | 437 |
| Cc1cc(Nc2nc(Nc3cc(Cl)c(C4CCN(CCS(=O)(=O)N5CCC5)CC4)cc3C)ncc2Cl)n[nH]1 [Compound 60, N2-(4-(1-(2-(azetidin-1-ylsulfonyl)ethyl)piperidin-4-yl)-5-chloro-2-methylphenyl)-5-chloro-N4-(5-methyl-1H-pyrazol-3-yl)pyrimidine-2,4-diamine] | 11 |
| Cc1cc(Nc2nc(Nc3cc(C)c(C4CCN(C(=O)c5ocnc5C)CC4)cc3F)ncc2Cl)n[nH]1 [Compound 136, (4-(4-(5-chloro-4-(5-methyl-1H-pyrazol-3-ylamino)pyrimidin-2-ylamino)-5-fluoro-2-methylphenyl)piperidin-1-yl)(4-methyloxazol-5-yl)methanone] | 35 |
| Cc1cc(Nc2nc(Nc3cc(C4CCN(C(C)C(N)=O)CC4)c(F)cc3C)ncc2Cl)n[nH]1 (centres unmarked) [Compound 48, 2-(4-(5-(5-chloro-4-(5-methyl-1H-pyrazol-3-ylamino)pyrimidin-2-ylamino)-2-fluoro-4-methylphenyl)piperidin-1-yl)propanamide] | 3680 |
| Cc1cc(Nc2nc(Nc3cc(C)c(C4CCN(S(=O)(=O)CCCN5CCCC5)CC4)cc3C)ncc2Cl)n[nH]1 [Compound 233, 5-chloro-N2-(2,5-dimethyl-4-(1-(3-(pyrrolidin-l-yl)propylsulfonyl)piperidin-4-yl)phenyl)-N4-(5-methyl-1H-pyrazol-3-yl)pyrimidine-2,4-diamine] | 54 |
| Cc1cc(Nc2nc(Nc3cc(C)c(C4CCN(C5CCC5)CC4)cc3F)ncc2Cl)n[nH]1 [Compound 272, 5-chloro-N2-(4-(1-cyclobutylpiperidin-4-yl)-2-fluoro-5-methylphenyl)-N4-(5-methyl-1H-pyrazol-3-yl)pyrimidine-2,4-diamine] | 50 |
| Cc1cc(Nc2nc(Nc3cc(C)c(C4CCN(C(=O)CN5C(C)CCCC5C)CC4)cc3C)ncc2Cl)n[nH]1 (centres unmarked) [Compound 103, 1-(4-(4-(5-chloro-4-(5-methyl-1H-pyrazol-3-ylamino)pyrimidin-2-ylamino)-2,5-dimethylphenyl)piperidin-1-yl)-2-(2,6-dimethylpiperidin-1-yl)ethanone] | 9 |
| Cc1cc(Nc2nc(Nc3cc(C)c(C4CCN(CCC(N)=O)CC4)cc3F)ncc2Cl)n[nH]1 [Compound 248, 3-(4-(4-(5-chloro-4-(5-methyl-1H-pyrazol-3-ylamino)pyrimidin-2-ylamino)-5-fluoro-2-methylphenyl)piperidin-1-yl)propanamide] | 140 |
| Cc1cc(Nc2nc(Nc3cc(C)c(C4CCN(C(=O)[C@@H]5CCCCN5C(C)C)CC4)cc3F)ncc2Cl)n[nH]1 [Compound 125, (S)-(4-(4-(5-chloro-4-(5-methyl-1H-pyrazol-3-ylamino)pyrimidin-2-ylamino)-5-fluoro-2-methylphenyl)piperidin-1-yl)(1-isopropylpiperidin-2-yl)methanone] | 12 |
| Cc1cc(Nc2nc(Nc3cc(C)c(C4CCN(C)CC4)cc3F)ncc2Cl)no1 [Compound 159, 5-chloro-N2-(2-fluoro-5-methyl-4-(1-methylpiperidin-4-yl)phenyl)-N4-(5-methylisoxazol-3-yl)pyrimidine-2,4-diamine] | 73 |
| Cc1cc(Nc2nc(Nc3cc(C)c(C4CCN(C(=O)C5(N(C)C)CCC5)CC4)cc3C)ncc2Cl)n[nH]1 [Compound 92, (4-(4-(5-chloro-4-(5-methyl-1H-pyrazol-3-ylamino)pyrimidin-2-ylamino)-2,5-dimethylphenyl)piperidin-1-yl)(1-(dimethylamino)cyclobutyl)methanone] | 15 |
| Cc1cc(Nc2nc(Nc3cc(C4CCN(CC(O)C(F)(F)F)CC4)c(F)cc3C)ncc2Cl)n[nH]1 (centres unmarked) [Compound 31, 3-(4-(5-(5-chloro-4-(5-methyl-1H-pyrazol-3-ylamino)pyrimidin-2-ylamino)-2-fluoro-4-methylphenyl)piperidin-1-yl)-1,1,1-trifluoropropan-2-ol] | 6470 |
| Cc1cc(Nc2nc(Nc3cc(C(F)(F)F)c(C4CCN(C)CC4)cc3C)ncc2Cl)n[nH]1 [Compound 218, 5-chloro-N4-(5-methyl-1H-pyrazol-3-yl)-N2-(2-methyl-4-(1-methylpiperidin-4-yl)-5-(trifluoromethyl)phenyl)pyrimidine-2,4-diamine] | 26 |
| Cc1cc(Nc2nc(Nc3cc(C)c(C4CCN(C(=O)c5nc(C(C)C)no5)CC4)cc3F)ncc2Cl)n[nH]1 [Compound 265, (4-(4-(5-Chloro-4-(5-methyl-1H-pyrazol-3-ylamino)pyrimidin-2-ylamino)-5-fluoro-2-methylphenyl)piperidin-1-yl)(3-isopropyl-1,2,4-oxadiazol-5-yl)methanone] | 91 |
| Cc1cc(Nc2nc(Nc3cc(C)c(C4CCN(CCO)CC4)cc3C)ncc2C(F)(F)F)n[nH]1 [Compound 222, 2-(4-(2,5-dimethyl-4-(4-(5-methyl-1H-pyrazol-3-ylamino)-5-(trifluoromethyl)pyrimidin-2-ylamino)phenyl)piperidin-1-yl)ethanol] | 38 |
| CNC(=O)CN1CCC(c2cc(F)c(Nc3ncc(Cl)c(Nc4cc(C(F)(F)F)[nH]n4)n3)cc2C)CC1 [Compound 172, 2-(4-(4-(5-chloro-4-(5-(trifluoromethyl)-1H-pyrazol-3-ylamino)pyrimidin-2-ylamino)-5-fluoro-2-methylphenyl)piperidin-1-yl)-N-methylacetamide] | 69 |
| Cc1cc(Nc2nc(Nc3cc(C)c(C4CCN(C5CCC(=O)CC5)CC4)cc3F)ncc2Cl)n[nH]1 [Compound 290, 4-(4-(4-(5-chloro-4-(5-methyl-1H-pyrazol-3-ylamino)pyrimidin-2-ylamino)-5-fluoro-2-methylphenyl)piperidin-1-yl)cyclohexanone] | 23 |
| Cc1cc(Nc2nc(Nc3cc(C)c(C4CCCCN4C(=O)CN(C)C)cc3C)ncc2Cl)n[nH]1 (centres unmarked) [Compound 83, 1-(2-(4-(5-chloro-4-(5-methyl-1H-pyrazol-3-ylamino)pyrimidin-2-ylamino)-2,5-dimethylphenyl)piperidin-1-yl)-2-(dimethylamino)ethanone] | 13 |
| Cc1cc(Nc2nc(Nc3cc(C)c([C@H]4COC(=O)N4)cc3C)ncc2Cl)n[nH]1 [Compound 230, (S)-4-(4-(5-chloro-4-(5-methyl-1H-pyrazol-3-ylamino)pyrimidin-2-ylamino)-2,5-dimethylphenyl)oxazolidin-2-one] | 40 |
| Cc1cc(Nc2nc(Nc3cc(C)c(C4CCS(=O)(=O)C4)cc3C)ncc2Cl)n[nH]1 (centres unmarked) [Compound 154, 5-Chloro-N^2-[4-(1,1-dioxo-tetrahydro-1λ^6-thiophen-3-yl)-2,5-dimethyl-phenyl]-N^4-(5-methyl-1H-pyrazol-3-yl)-pyrimidine-2,4-diamine] | 12 |
| Cc1cc(Nc2nc(Nc3cc(C)c(C4CCN(CCC(F)(F)F)CC4)cc3C)ncc2Cl)n[nH]1 [Compound 25, 5-chloro-N2-(2,5-dimethyl-4-(1-(3,3,3-trifluoropropyl)piperidin-4-yl)phenyl)-N4-(5-methyl-1H-pyrazol-3-yl)pyrimidine-2,4-diamine] | 31 |
| Cc1cc(Nc2nc(Nc3cc(C)c(C4CCN(C5COC5)CC4)cc3F)ncc2Cl)n[nH]1 [Compound 306, 5-chloro-N2-(2-fluoro-5-methyl-4-(1-(oxetan-3-yl)piperidin-4-yl)phenyl)-N4-(5-methyl-1H-pyrazol-3-yl)pyrimidine-2,4-diamine] | 15 |
| Cc1cc(Nc2nc(Nc3cc(C)c(C4CCN(Cc5c(C)noc5C)CC4)cc3C)ncc2Cl)n[nH]1 [Compound 20, 5-chloro-N2-(4-(1-((3,5-dimethylisoxazol-4-yl)methyl)piperidin-4-yl)-2,5-dimethylphenyl)-N4-(5-methyl-1H-pyrazol-3-yl)pyrimidine-2,4-diamine] | 11 |
| CNC(=O)CN1CCCCC1c1cc(C)c(Nc2ncc(Cl)c(Nc3cc(C)[nH]n3)n2)cc1C (centres unmarked) [Compound 182, 2-(2-(4-(5-chloro-4-(5-methyl-1H-pyrazol-3-ylamino)pyrimidin-2-ylamino)-2,5-dimethylphenyl)piperidin-1-yl)-N-methylacetamide] | 19 |
| Cc1cc(Nc2nc(Nc3cc(C)c(C4CCN(CCc5nc(C(C)C)no5)CC4)cc3C)ncc2Cl)n[nH]1 [Compound 269, 5-Chloro-N2-(4-(1-(2-(3-isopropyl-1,2,4-oxadiazol-5-yl)ethyl)piperidin-4-yl)-2,5-dimethylphenyl)-N4-(5-methyl-1H-pyrazol-3-yl)pyrimidine-2,4-diamine] | 39 |
| Cc1cc(Nc2nc(Nc3cc(C)c(C4CCCCN4C(=O)C4(O)CC4)cc3C)ncc2Cl)n[nH]1 (centres unmarked) [Compound 193, (2-(4-(5-chloro-4-(5-methyl-1H-pyrazol-3-ylamino)pyrimidin-2-ylamino)-2,5-dimethylphenyl)piperidin-1-yl)(1-hydroxycyclopropyl)methanone] | 76 |
| Cc1cc(Nc2nc(Nc3cc(C)c([C@H]4CCN[C@@H](C)C4)cc3F)ncc2Cl)n[nH]1 (relative stereo) [Compound 280, 5-chloro-N2-(2-fluoro-5-methyl-4-((cis)-2-methylpiperidin-4-yl)phenyl)-N4-(5-methyl-1H-pyrazol-3-yl)pyrimidine-2,4-diamine] | 163 |
| Cc1cc(Nc2nc(Nc3cc(C)c(C4CCN(C(=O)CN5CCCC5)CC4)cc3F)ncc2Cl)n[nH]1 [Compound 99, 1-(4-(4-(5-chloro-4-(5-methyl-1H-pyrazol-3-ylamino)pyrimidin-2-ylamino)-5-fluoro-2-methylphenyl)piperidin-1-yl)-2-(pyrrolidin-1-yl)ethanone] | 38 |
| Cc1cc(Nc2nc(Nc3cc(C)c(C4CCN(CCCS(=O)(=O)N5CCOCC5)CC4)cc3F)ncc2Cl)n[nH]1 [Compound 245, 5-chloro-N2-(2-fluoro-5-methyl-4-(1-(3-(morpholinosulfonyl)propyl)piperidin-4-yl)phenyl)-N4-(5-methyl-1H-pyrazol-3-yl)pyrimidine-2,4-diamine] | 77 |
